Source: US7871981B2, “Inhibition of cell motility, angiogenesis, and metastasis” (The United States of America as represented by the …, priority 1999, dated 2011)

Columns and labels:
[1] = system: PC3M cells; assay: Growth rate and viability in culture of C-90 treated PC3M cells; assay type: cell-based, human; settings: treated 24 h, three week study period
[2] = system: MDCK cells; assay: Extracellular matrix invasion assay, MDCK cells in collagen gels; assay type: cell-based, canine; settings: HGF 10 ng/ml, peptide 100 nM, 5 days
Protocol: MDCK cell invasion into three-dimensional collagen gels was analyzed as previously described. Briefly, type I collagen (1.5 mg/ml; Cohesion Technologies) was mixed with 10×MEM and sodium bicarbonate (11.76 mg/ml) at a ratio of 8:1:1 (vol:vol:vol) on ice, and 0.4 ml aliquots were dispensed into 16-mm tissue culture wells (Nunc), and allowed to gel at 37° C. for 20 min. Cells were seeded onto gels (1×10^4 cells/well) in 0.4 ml of growth medium containing HGF and/or peptides 1 or 4 as indicated. After 5 days, cells were fixed in situ in 2.5% glutaraldehyde in 0.1 M sodium cacodylate buffer (pH 7.4), and cells that had invaded the gel below the surface monolayer in ten randomly selected fields (1×1.4 mm) were counted microscopically using a 20× phase contrast objective. Depth of cellular invasion into the collagen gel was quantitated in the same ten fields per treatment group using a calibrated fine focusing micrometer. Values were compared using the Student's unpaired t-test and a significant value was taken as P<0.001. Results in Table 1 are shown as the mean number of invading cells/field or mean invasion depth/cell in microns+standard error of the mean.
MDCK cells were left untreated (Control), treated with HGF (10 ng/ml), or HGF+peptide 2 or 4 (100 nM), and invasion into collagen matrices was quantitated microscopically as described above. Values are the mean of at least 10 randomly selected fields±standard error of the mean. Epithelial Tube Formation Assay

[3] = system: PC3M cells; assay: PC3M cell invasion across Matrigel-coated Transwell filters; assay type: cell-based, human; settings: increasing concentrations, with or without HGF 40 ng/ml, 30 h
Protocol: After serum deprivation and pre-treatment for 16 hrs, PC3M cells were assayed in cell culture inserts (BD Biosciences), 8 micron-pore-size polyethylene terephthalate membrane with Falcon cell culture inserts (Becton Dickinson). Pre-treated cells were trypsinized and counted; a total of 1×10^5 cells in serum free medium (500 microliters) were added to the upper chamber, and 500 microliters of serum free media with the relative concentration of C90 and HGF were added to the lower chamber. […] Then the cells in the inside of the upper chamber were removed with a cotton swab and cell on the other side of the membrane were fixed and stained using Diff-Quick (Dade Diagnostics, Deerfield, Ill.). Photographs of […] random fields were taken and cells were counted by bright field microscopy using a 10× objective. Mean values from four randomly selected fields (1×1.4 mm) were calculated for each of triplicate wells per experimental condition.
FIG. 13B depicts bar graphs of PC3M cell invasion across Matrigel-coated Transwell filters in the presence (filled bars) or absence (unfilled bars) of HGF (40 ng/ml, 30 h).

[4] = system: TAC-2 cells; assay: Epithelial tube formation assay, TAC-2 cells in collagen gels; assay type: cell-based
Protocol: TAC-2 cells were suspended in three-dimensional collagen gels at 1×10^4 cells/ml in collagen and incubated in complete medium containing HGF and/or Grb2 inhibitors as indicated. After 3 days, the cultures were fixed with 2.5% glutaraldehyde in 0.1 M cacodylate buffer, and at least 3 randomly selected fields per experimental condition in each of 3 separate experiments were digitally recorded with brightfield microscopy. The total length of the cords in each individual colony present in each optical field was measured with IPLab. Cord length was considered as “0” in: a) colonies with a spheroidal shape, and b) slightly elongated structures in which the length to diameter ratio was less than 2. The mean values for each experimental condition were compared to controls using the Student's unpaired t-test. Results in FIG. 5 are described as mean total cord length (in μm) per field.

[5] = system: HMEC-1 cells; assay: HMEC-1 cell migration, modified Boyden chamber; assay type: cell-based, human; settings: VEGF
Protocol: (§1) The migration assay of HUVE and HMEC-1 cells in modified Boyden chambers was adapted from previously described procedures (Murohara et al., Thromb. Vasc. Biol., 19: 1156-61 (1999), Malinda et al., FASEB J., 13: 53-62 (1999)). In brief, Biocoat Cell Environment control inserts (8 micron pore size; Becton Dickinson) were coated with 0.1% gelatin (Sigma) for at least 1 hour at 37° C. and air dried. Lower chambers contained 0.7 ml RPMI+0.1% BSA, to which 20 ng/ml HGF and/or 300 nM Grb2 inhibitors were added. Cells were pre-treated with the indicated concentrations of Grb2 inhibitors for 18-24 hours, trypsinized, washed twice in RPMI+0.1% BSA, added to upper chambers (5×10^4 cells/well) with or without inhibitors in a final volume of 0.5 ml, and incubated for 4 h at 37° C. Cells on the upper surface of each filter were removed with a cotton swab, while cells that had traversed to the bottom surface of the filter were fixed and stained using Diff-Quik (Dade Diagnostics) and counted using a 10× objective. Mean values from 4 randomly selected fields (1×1.4 mm) were calculated for each of triplicate wells per experimental condition. Shown in FIG. 6 is the ratio of growth factor-treated to control migrating cells designated on the y-axis as “Migration (Fold Increase)” or as the mean number of cells per optical field in FIGS. 8-11.

[6] = system: B16 mouse melanoma cells; assay: Growth rate and viability in culture of C-90 treated B16 cells; assay type: cell-based; settings: same study period
[7] = system: HUVE cells; assay: HUVE cell migration, modified Boyden chamber; assay type: cell-based, human
Protocol: as §1

[8] = system: HMVE cells; assay: HMVE cell proliferation; assay type: cell-based, human
Protocol: HUVE or HMVE cells were seeded per triplicate in type I collagen-coated 48-well plates (Biocoat) (3000 cells/well) in […] of complete EGM-Bullet Kit medium (BioWhittaker, Walkersville, Md.), allowed to attach for 4 hr and incubated overnight with or without the indicated concentrations of peptide 2. The cultures were rinsed twice in serum-free medium and incubated with EBM medium (BioWhittaker) supplemented with 50 μg/ml heparin, 50 μg/ml ascorbic acid and 10% FCS. After either 4 days (HUVE) or 5 days (HMVE), cells were harvested with trypsin/EDTA and counted with an hemocytometer. The mean number of cells per ml was calculated from 3 independent measures for each of triplicate wells per experimental condition and compared to controls using the Student's unpaired t-test. Results set forth in FIG. 12 are described as the ratio of growth factor-treated to control proliferating cells designated on the y-axis as “Proliferation (Fold Increase)”.

With NC(=O)C[C@H](NC(=O)C1(NC(=O)[C@H](Cc2ccc(C(C(=O)O)C(=O)O)cc2)NC(=O)C(=O)O)CCCCC1)C(=O)NCCCc1cccc2ccccc12 [peptide 2, (N-oxalyl-4-malonyl)-Phe-Ac6c-Asn-NH-(3-naphthalen-1-yl-propyl)] the “growth rate and viability in culture” value [1] was “identical growth rate and viability as untreated cells”, the “Mean Invading Cells/Field” value [2] was 12.6 ± 1.9 and the “Mean Invasion Depth/Cell” value [2] was 17.9 ± 1.9 μm. For the same compound, the “PC3M cell invasiveness in vitro” value [3] was “dose-dependent inhibition”, the “HGF-induced elongation of epithelial tubes (cord length)” value ([4]; HGF 20 ng/ml, 3 days) was “significantly (p<0.0001) abrogate” and the “concentration at which a sub-maximal inhibitory effect is already observed” value ([4]; HGF-induced tube elongation) was 30 nM. The VEGF-induced cell migration [5] was “significantly (p<0.001) reverted”, the “cell viability or growth rate in culture” value [6] was “no differences in cell viability or growth rate” and the VEGF-induced cell migration ([7]; VEGF) was “significantly (p<0.001) reverted”. The PMA-induced cell migration ([7]; peptide 300 nM, PMA 40 ng/ml) was “dramatically reverted to basal levels”, the HMVE cell growth ([8]; peptide 30 nM, presence and absence of growth factors) was “basically resistant” and the HMVE cell growth ([8]; peptide 300 nM) was “highly significant (p<0.001) inhibition of cell growth”.
